Assay [1] has as its system KMS-12-BM myeloma cell line. The experiment in a line: Pim KMS-12 cell assay (phospho-BAD S112 / total BAD, MSD).
Another assay addresses Pim-2 (Homo sapiens (Human), UniProt Q9P1W9). The experiment in a line: Pim-Mn enzyme assay (HTRF, 384-well), Pim-2. The class given is biochemical. The following applies: read-out: Pim-2-Mn IC50 IP.
Another assay has as its system KMS-12-BM cell lines. The experiment in a line: KMS12 #2 flow cytometry assay (phospho-BAD Ser112). It is filed as cell-based. Conditions: Homo sapiens, 110 min; KMS-12-BM cells, pBAD Ser112 by flow cytometry, 110 min with compound; read-out: KMS-12-Flow IC50 IP.
In a further assay the target is Pim-1 (Homo sapiens (Human), UniProt P11309). The experiment in a line: Pim-Mn enzyme assay (HTRF, 384-well), Pim-1. It is filed as biochemical. Conditions: read-out: Pim-1-Mn IC50 IP.
Setting [2] is: Homo sapiens, KMS-12-BM, read-out: KMS-12-BM IC50 IP, KMS-12-BM cells, phospho-BAD (S112) vs total BAD, 1 hour 50 min with compound.
Where [3] appears, read: read-out: KMS-12-BM IC50 IP, KMS-12-BM cells, phospho-BAD (S112) vs total BAD, 1 hour 50 min with compound.
Setting [4] is: Pim-2 enzyme 0.5 pM, ATP 1.5 μM, BAD (S112) 0.5 μM, HTRF, 22-point curve.
Where [5] appears, read: Pim-1 enzyme 5 pM, ATP 1.5 μM, BAD (S112) 0.5 μM, HTRF, 22-point curve.

Read-outs that look alike come from different tables or passages of the source.

Chain of Pim-1 (P11309 whole entry): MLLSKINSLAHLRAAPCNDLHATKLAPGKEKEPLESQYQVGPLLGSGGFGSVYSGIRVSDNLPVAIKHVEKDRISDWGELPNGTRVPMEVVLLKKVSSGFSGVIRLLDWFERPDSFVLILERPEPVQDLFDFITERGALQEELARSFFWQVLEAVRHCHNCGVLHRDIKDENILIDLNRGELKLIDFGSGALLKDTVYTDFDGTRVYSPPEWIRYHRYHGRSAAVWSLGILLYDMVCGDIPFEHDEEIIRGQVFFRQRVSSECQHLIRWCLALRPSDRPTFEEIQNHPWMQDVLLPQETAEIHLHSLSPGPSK
Chain of Pim-2 (Q9P1W9 whole entry): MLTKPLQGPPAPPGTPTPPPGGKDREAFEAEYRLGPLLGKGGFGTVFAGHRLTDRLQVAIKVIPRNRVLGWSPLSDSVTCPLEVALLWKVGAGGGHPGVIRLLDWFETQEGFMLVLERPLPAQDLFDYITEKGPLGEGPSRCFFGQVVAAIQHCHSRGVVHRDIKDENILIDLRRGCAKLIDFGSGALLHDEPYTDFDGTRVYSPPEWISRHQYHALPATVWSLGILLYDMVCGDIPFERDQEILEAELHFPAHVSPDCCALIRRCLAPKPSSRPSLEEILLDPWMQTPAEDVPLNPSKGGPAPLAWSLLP

On to `CCC1CNC(=O)c2cc(-c3cccc4ccc(Nc5ccccc5)nc34)[nH]c21` (racemic) [Example 24, rac-7-ethyl-2-(2-(phenylamino)quinolin-8-yl)-6,7-dihydro-1H-pyrrolo[3,2-c]pyridin-4(5H)-one], for which the IC50 in assay [1] (setting [2]) came out at 1410 nM.

Take `Cc1nc2cccc(-c3cc4c([nH]3)CCNC4=O)c2nc1NC(C)C(C)C` (racemic) [Example 73, 2-(3-4(±)-1,2-dimethylpropyl)amino)-2-methyl-5-quinoxalinyl)-1,5,6,7-tetrahydro-4H-pyrrolo[3,2-c]pyridin-4-one]: in assay [1] (setting [2]), the IC50 came to 107 nM.

Regarding `Cc1nc2cccc(-c3cc4c([nH]3)CCNC4=O)c2nc1NC1CCCOC1` (racemic) [Example 198, rac-2-(2-methyl-3-((tetrahydro-2H-pyran-3-yl)amino)quinoxalin-5-yl)-6,7-dihydro-1H-pyrrolo[3,2-c]pyridin-4(5H)-one], in assay [1] (setting [2]), the half-inhibitory concentration (IC50) is 307 nM.

Take `CC1CNC(=O)c2cc(-c3cccc4ccc(Nc5ccccc5)nc34)[nH]c21` (racemic) [Example 238, rac-7-methyl-2-(2-(phenylamino)quinolin-8-yl)-6,7-dihydro-1H-pyrrolo[3,2-c]pyridin-4(5H)-one]: in assay [1] (setting [2]), the half-inhibitory concentration (IC50) was 1280 nM.

Turning to `CC1CNC(=O)c2cc(-c3cccc4ccc(Nc5ccccc5)nc34)[nH]c21` (single isomer, unassigned) [Example 29, 7-methyl-2-(2-(phenylamino)quinolin-8-yl)-6,7-dihydro-1H-pyrrolo[3,2-c]pyridin-4(5H)-one], in assay [1] (setting [3]), the concentration for half-maximal inhibition (IC50) was 737 nM.

For the molecule `CC1CNC(=O)c2cc(-c3cccc4ccc(Nc5ccccc5)nc34)[nH]c21` (single isomer, unassigned) [Example 30, 7-methyl-2-(2-(phenylamino)quinolin-8-yl)-6,7-dihydro-1H-pyrrolo[3,2-c]pyridin-4(5H)-one], the IC50 in assay [1] (setting [3]) stood at 5890 nM.

As to `CC(c1ccccc1)c1ccc2cccc(-c3cc4c([nH]3)CCNC4=O)c2n1` (single isomer, unassigned) [Example 116, 2-(2-(1-phenylethyl)quinolin-8-yl)-6,7-dihydro-1H-pyrrolo[3,2-c]pyridin-4(5H)-one], in assay [1] (setting [2]), the IC50 was 7540 nM.

As to `Cc1nc2cccc(-c3cc4c([nH]3)[C@@H](C)NC4=O)c2nc1O[C@@H](C)C(F)(F)F` [Example 452, (6R)-6-methyl-2-(2-methyl-3-((1S)-2,2,2-trifluoro-1-methylethoxy)-5-quinoxalinyl)-5,6-dihydropyrrolo[3,4-b]pyrrol-4(1H)-one], the IC50 stood at 32.5 nM at Pim-2 (setting [4]), 3190 nM in the assay on KMS-12-BM cell lines and 21.6 nM on Pim-1 (setting [5]).

For `Cc1nc2cccc(-c3cc4c([nH]3)[C@@H](C)NC4=O)c2nc1O[C@H](C)C(F)(F)F` [Example 453, (6R)-6-methyl-2-(2-methyl-3-((1R)-2,2,2-trifluoro-1-methylethoxy)-5-quinoxalinyl)-5,6-dihydropyrrolo[3,4-b]pyrrol-4(1H)-one], the IC50 on Pim-2 (setting [4]) was 258 nM; in the assay on KMS-12-BM cell lines, > 40000 nM; at Pim-1 (setting [5]), 37.5 nM.

As for `Cc1nc2cccc(-c3cc4c([nH]3)CCNC4=O)c2nc1NC(C)(C)CN1CCOCC1` [Example 457, 2-(3-((1,1-dimethyl-2-(4-morpholinyl)ethyl)amino)-2-methyl-5-quinoxalinyl)-1,5,6,7-tetrahydro-4H-pyrrolo[3,2-c]pyridin-4-one], the half-inhibitory concentration (IC50) on Pim-2 (setting [4]) is 134 nM; in the assay with KMS-12-BM cell lines, 3490 nM; at Pim-1 (setting [5]), 35.7 nM.

`COCCn1c(NC(C)(C)C)nc2c(-c3cc4c([nH]3)CNC4=O)cccc2c1=O` [Example 458, 2-(tert-butylamino)-3-(2-methoxyethyl)-8-(4-oxo-1,4,5,6-tetrahydropyrrolo[3,4-b]pyrrol-2-yl)-4(3H)-quinazolinone]: the IC50 amounted to 0.218 nM at Pim-2 (setting [4]), 54.6 nM with KMS-12-BM cell lines and 0.325 nM at Pim-1 (setting [5]).

As to `COCCn1c(NC(C)(C)C)nc2c(-c3cc4c([nH]3)[C@@H](C)NC4=O)cccc2c1=O` [Example 459, 2-(tert-butylamino)-3-(2-methoxyethyl)-8-((6R)-6-methyl-4-oxo-1,4,5,6-tetrahydropyrrolo[3,4-b]pyrrol-2-yl)-4(3H)-quinazolinone], the figures for the IC50 on Pim-2 (setting [4]), in the assay on KMS-12-BM cell lines and on Pim-1 (setting [5]) were 0.193 nM, 76 nM and 0.199 nM, respectively.

With `C[C@H]1NC(=O)c2cc(-c3cccc4c(=O)n(C)c(OC5(C)CC5)nc34)[nH]c21` [Example 460, 3-methyl-2-((1-methylcyclopropyl)oxy)-8-((6R)-6-methyl-4-oxo-1,4,5,6-tetrahydropyrrolo[3,4-b]pyrrol-2-yl)-4(3H)-quinazolinone], the IC50 turned out to be 1.01 nM on Pim-2 (setting [4]), 94 nM in the assay with KMS-12-BM cell lines and 0.554 nM at Pim-1 (setting [5]).

`Cc1nc2cccc(-c3cc4c([nH]3)C(CCO)NC4=O)c2nc1NC(C)(C)C` (stereo not shown) [Example 462, 2-(3-(tert-butylamino)-2-methyl-5-quinoxalinyl)-6-(2-hydroxyethyl)-5,6-dihydropyrrolo[3,4-b]pyrrol-4(1H)-one]: the figures for the half-maximal inhibitory concentration (IC50) at Pim-2 (setting [4]), in the assay with KMS-12-BM cell lines and on Pim-1 (setting [5]) were 0.47 nM, 122 nM and 0.51 nM, respectively.

`C[C@H]1NC(=O)c2cc(-c3cccc4c(=O)n(C)c(NC5(C)CCC5)nc34)[nH]c21` [Example 465, 3-methyl-2-((1-methylcyclobutyl)amino)-8-((6R)-6-methyl-4-oxo-1,4,5,6-tetrahydropyrrolo[3,4-b]pyrrol-2-yl)-4(3H)-quinazolinone]: the IC50 on Pim-2 (setting [4]) is 0.13 nM; with KMS-12-BM cell lines, 35 nM; at Pim-1 (setting [5]), 0.074 nM.

As to `Cc1nc2cccc(-c3cc4c([nH]3)C(C)(C)NC4=O)c2nc1NC(C)(C)C` [Example 466, 2-(3-(tert-butylamino)-2-methyl-5-quinoxalinyl)-6,6-dimethyl-5,6-dihydropyrrolo[3,4-b]pyrrol-4(1H)-one], the IC50 at Pim-2 turned out to be 1.93 nM; in the assay on KMS-12-BM cell lines, 75.5 nM; on Pim-1, 2.28 nM.

On to `Cc1nc2cccc(-c3cc(C(N)=O)n[nH]3)c2nc1NC(C)(C)C` [Example 467, 5-(3-(tert-butylamino)-2-methylquinoxalin-5-yl)-1H-pyrazole-3-carboxamide], for which the half-maximal inhibitory concentration (IC50) at Pim-2 (setting [4]) was determined as 8.9 nM; in the assay with KMS-12-BM cell lines, 3880 nM; on Pim-1 (setting [5]), 21.6 nM.

Regarding `Cc1nc2cccc(-c3cc4n(n3)CCNC4=O)c2nc1NC(C)(C)C` [Example 471, 2-(3-(tert-butylamino)-2-methylquinoxalin-5-yl)-6,7-dihydropyrazolo[1,5-a]pyrazin-4(5H)-one], the IC50 on Pim-2 stood at 593 nM; in the assay on KMS-12-BM cell lines, 15500 nM; at Pim-1 (setting [5]), 164 nM.

Consider `COCCN(CCOC)CCC(C)(C)Nc1nc2c(-c3cc4c([nH]3)CNC4=O)cccc2c(=O)n1C` [Example 473, 2-((4-(bis(2-methoxyethyl)amino)-2-methylbutan-2-yl)amino)-3-methyl-8-(4-oxo-1,4,5,6-tetrahydropyrrolo[3,4-b]pyrrol-2-yl)quinazolin-4(3H)-one], for which the IC50 worked out at 36 nM at Pim-2 (setting [4]), 12400 nM in the assay with KMS-12-BM cell lines and 11.4 nM on Pim-1 (setting [5]).

In the case of `COCCOCCn1c(NC(C)(C)C)nc2c(-c3cc4c([nH]3)[C@@H](C)NC4=O)cccc2c1=O` [Example 474, 2-(tert-butylamino)-3-(2-(2-methoxyethoxyl)ethyl)-8-((6R)-6-methyl-4-oxo-1,4,5,6-tetrahydropyrrolo[3,4-b]pyrrol-2-yl)-4(3H)-quinazolinone], the IC50 is 0.917 nM on Pim-2 (setting [4]), 121 nM in the assay with KMS-12-BM cell lines and 1.34 nM on Pim-1 (setting [5]).

The values are drawn from patent publication US9394297B2, “Amides as pim inhibitors” (AMGEN INC., priority 2012, dated 2016).
